Test results: PubChem BioAssay AID599 (The Scripps Research Institute Molecular Screening Center, 2007)
Active and inactive are the calls of the source. How the calls were made is not given here.

Molecular target: Nuclear receptor ROR-alpha (Homo sapiens) (UniProt P35398)
Assay: inhibitors of orphan receptor RORA activity – cell-based, counter-screen for SF-1 inhibitor project, dose response (AID 599)
Details: cell-based RORA reporter inhibition

Sequence of Nuclear receptor ROR-alpha (Homo sapiens) (P35398 whole entry, looked up): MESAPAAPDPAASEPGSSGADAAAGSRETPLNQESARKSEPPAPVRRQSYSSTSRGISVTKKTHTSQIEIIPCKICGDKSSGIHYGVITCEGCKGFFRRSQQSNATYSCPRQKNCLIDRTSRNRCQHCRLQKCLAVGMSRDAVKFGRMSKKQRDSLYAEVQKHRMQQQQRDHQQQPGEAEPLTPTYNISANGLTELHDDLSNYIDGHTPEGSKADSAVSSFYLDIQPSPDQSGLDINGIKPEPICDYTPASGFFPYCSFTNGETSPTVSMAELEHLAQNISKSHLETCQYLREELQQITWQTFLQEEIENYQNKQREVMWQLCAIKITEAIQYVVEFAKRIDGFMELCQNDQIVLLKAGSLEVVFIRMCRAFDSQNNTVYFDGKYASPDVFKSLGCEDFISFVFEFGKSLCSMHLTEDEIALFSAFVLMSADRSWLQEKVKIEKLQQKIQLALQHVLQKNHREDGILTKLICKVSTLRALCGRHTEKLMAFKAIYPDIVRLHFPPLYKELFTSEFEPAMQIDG

Structure (SMILES) | IC50
COc1cc(C2C(C#N)=C(N)Oc3cc(N)ccc32)cc(OC)c1OC (centres undefined) | inactive
COc1cc(/C=N/O)ccc1OCc1ccc(C(=O)O)cc1 | 0.967 µM
O=C(/C=C\Nc1cccc(F)c1)c1ccc2c(c1)OCO2 | 5.54 µM
O=C(/C=C\Nc1ccccn1)c1ccc(Cl)cc1 | 7.08 µM
COc1cc(C2C(C#N)=C(N)Oc3cc(N(C)C)ccc32)cc2c1OCO2 (centres undefined) | > 3.67 µM (inactive)
CN(C)c1ccc2c(c1)OC(N)=C(C#N)C2c1cccc(F)c1 (centres undefined) | inactive
COC(=O)C1=C(CN2CCCc3ccccc32)NC(=O)NC1c1ccc(F)cc1 (centres undefined) | 3.59 µM
COC(=O)c1ccc(N2C(=O)CC(N3CCC(n4c(=O)[nH]c5ccccc54)CC3)C2=O)cc1 (centres undefined) | > 99 µM (inactive)
O=S(=O)(c1ccc2c(c1)C(=NO)c1cc(S(=O)(=O)N3CCCCC3)ccc1-2)N1CCCCC1 | 1.93 µM
CN(C)c1ccc(N/C=C/C(=O)c2ccccc2)cc1 | inactive
CCOC(=O)C1=C(Cn2cnc3ccccc32)NC(=O)NC1c1cc(C)ccc1C (centres undefined) | > 11 µM (inactive)
O=C(/C=C\Nc1ccc2c(c1)OCO2)c1ccccn1 | > 11 µM (inactive)
CSC1=C(C#N)C(c2ccc(Cl)cc2)C2=C(CC(C)(C)CC2=O)N1 (centres undefined) | inactive
CCOc1ccccc1-n1c(SCC(=O)Nc2ccc(CC)cc2)nc2n[nH]c(C)c2c1=N | 6.54 µM
CC(=O)CC1OC(=O)C(Br)=C1NCc1ccccc1 (centres undefined) | 9.45 µM
COc1cc(C2C(C#N)=C(C)NC3=C2C(=O)c2ccccc23)cc(OC)c1OC (centres undefined) | 4.75 µM
N#CC1=C(N)C(C#N)(C#N)[C@H](c2ccncc2)[C@H]2CN(C(=O)OCc3ccccc3)CC=C12 | inactive
Cc1ccc(C(=O)/C=C/Nc2ccccn2)cc1 | inactive
CCN(CC)c1ccc2c(c1)OC(N)=C(C#N)C2c1cccnc1 (centres undefined) | inactive
